Columns and labels:
Format in all cases: cell-based, human
MNC = experiment: self renewal: GEMM colony formation of MNC mixed with doses of ABME cells
Procedure: The mesenchyme cells were grown in IMDM plus 20% fetal bovine serum until they were nearly confluent. The medium was removed and was washed 2× with PBS. ABME was prepared by using a biological hematomodulator namely, TGF beta 1(20 ng ml−1).The ABME formed was washed 2× with PBS and the cells were dissociated with a non-enzymatic solution (Sigma). A fixed number of MNC namely 2×10^5 were mixed with various doses of dissociated mesenchymal cells (2×10^4, 5×10^4 and 1×10^5) and incubated for 1 hour. At the end of the incubation, cells were processed for hematopoietic colony formation assays (HCFA). […] Secondly the lowest concentration of cells from ABME (2×10^4) was more efficient in the stimulation of GEMM formation than the highest concentration (1×10^5) of mesenchymal cells indicating a nearly 10 fold increase in the efficiency.

CD34+ cells [1] = experiment: adhesion of CD34+ cells to ABME on coverslips; conditions: 10 ngml^-1, 18 hours; CD34+/MNC contact 1 hour; vs reference coverslip
Procedure: Mesenchyme cells were grown on a sterile 1 cm×1 cm glass coverslip to near confluence and were covered with a treatment medium containing 10 ngml^−1 TGF-β1 and were incubated for 18 hours in a humidified sterile atmosphere and 5% CO2. The coverslips were then washed with PBS, and the ABME thus created were covered with a suspension of 2×10^6 MNC or 2×10^5 CD34^+ cells in 0.2 ml of IMDM with 20% serum. After 1 hour at 37° C., the coverslips were washed with PBS and the cells were fixed and stained with a CD34^+ specific antibody (clone HPCA1, Becton Dickinson, USA). The number of CD34^+ cells attached were counted and compared to the number of similar cells that were attached in a parallel reference experiment where TGF-β1 was not used. […] It may be seen from FIGS. 6(d-f) that there is an increased adhesion of CD34^+ cells to mesenchymal cells when mesenchymal cells are treated with TGF-β1.

[2] = system: mesenchymal cells (ABME) with MNC; experiment: quantitative hematopoietic colony formation assay for ABME (HCFA-ABME): MNC with hematomodulator-contacted mesenchymal cells
Text: As described above, the medium for blood cell formation employed may be IMDM with 20% serum and supplemented with interleukins such as IL-lbeta, IL-3, and IL-6, stem cell factor, lineage specific growth factors such as erythropoietin and GM-CSF, G-CSF; and methyl cellulose to the extent of 0.8%, the culture is maintained for 12-14 days under the culture conditions whereby blood cell colonies grow well or form colonies and clearly the growth is visible/distinguishable for further analysis and use. An assay designed in a similar manner to assess quantitative nature of ABME function is referred hereafter as ‘quantitative hematopoietic colony formation assay for ABME (HCFA-ABME)’.
Several experiments were conducted to determine that mesenchymal cells exert direct influence on SPC cell-fate. In one set of experiments, mesenchymal cells were cultured separately and nearly 50,000 of them were exposed to a typical HCFA medium comprising 0.8% methyl cellulose in IMDM and 20-30% serum along with excess amounts of various purified and human specific cytokines and hematopoietic colony stimulating growth factors (from Stem cell Technologies, […], Canada). More specifically, the quantities of hematopoietic growth factors used routinely in HCFA were, 2 International Units per milliliter (2 I.U.ml^−1) of Erythropietin (EPO), 50 nanogram per milliliter (50 ng.ml^−1) of Stem Cell Factor (SCF) and 20 nanogram per milliliter (20 ng/ml^−1) each of Granulocyte-Macrophage-Colony Stimulating Factor (GM-CSF), Granulocyte-Colony Stimulating Factor (G-CSF), Interleukin-1 beta (IL-1β), Interleukin-3 (IL-3) and Interleukin-6 (IL-6) {all growth factors and cytokines are from Stem cell Technologies, Vancouver, Canada,}.
In another set of experiments, 50,000 of the same mesenchymal cells were first mixed with nearly 100,000 MNC, held at 37° C. for at least 30 minutes and were processed for colony formation assays. In several experiments, a consistent improvement in the number and cellularity of the hematopoietic colonies was seen when both these two cell types were mixed compared to a reference where only the cells of MNC were used. The increase was ranging from 1.5 to 10-fold. Thus, the enhancement in colony formation obtained with the use of only mesenchymal cells was highly variable and unpredictable among samples. The fact that hematopoietic colonies formed in increased numbers and cellularity only when MNC and mesenchymal cells were processed together is evidence of a new environment created by the mesenchymal cells in which the SPC present in the MNC were more productive. This increase results in activation of the pre-existing but quiescent SPC, formation of new SPC due to self-renewal, and a combination of both factors.
In order to create ABME, the mesenchymal cells were covered with the contacting medium comprising hematomodulators contained in IMDM with 20% human serum or fetal bovine serum for a desirable period (range 8-24 hours) and removed. The contacted cells were then washed 2 times using the contacting medium (IMDM +20% FCS) without hematomodulators and used as such or after harvesting the mesenchymal cells, which now represent the composition of in vitro ABME. Optionally, ABME cells can be configured on supports that will distribute them in two or more dimensions for better results. A requisite number of MNC/SPC and cells of the ABME are taken and kept together for a suitable duration (range 0.5 to 6 hours) after which they were processed for in vitro hematopoietic colony formation assays or hematopoiesis.
Thus, the inventors undertook 4 sets of experiments: (a) wherein mononuclear cells were exposed to mesenchymal cells without any treatment; (b) wherein MNC were exposed to mesenchymal cells contacted with a biological agent [TGFβ1] […]

CD34+ cells [3] = experiment: self renewal: CD34+ cell number after 48 hours on ABME; Jagged1 expression
Procedure: Mesenchyme cells were grown on a sterile 1 cm×1 cm glass coverslip to near confluence and were covered with a treatment medium containing 10 ngml^−1 TGF-β1 and were incubated for 18 hours in a humidified sterile atmosphere and 5% CO2. The coverslips were then washed with PBS, and the ABME thus created were covered with a suspension of 2×10^5 CD34^+ cells in 0.2 ml of IMDM with 20% serum. The cells were washed after one hour and the bound cells were covered with medium with 20% serum containing 0.8% methyl cellulose and growth factors. The change in CD34^+ cell number after 48 hours was monitored with a CD34^+ specific antibody (clone HPCA1, Becton Dickinson, USA).

HIF1α = HIF1α immunostaining of mesenchymal cells; conditions: immunostaining vs control cells; FIG. 11a
Text: Mesenchymal cells were processed for ABME formation as per details given in experiment #1 above using a biological modulator namely TGFbeta1. The cells were fixed after the indicated time periods and immuno-stained with an antibody to HIF1α which is a specific transcription factor related to hypoxia.

HumanTransforming Growth Factor beta1 [TGFβ1]
GEMM colony formation (MNC; 20 ng ml-1, 2×10^5 MNC with 2×10^4, 5×10^4, 1×10^5 ABME cells vs control mesenchymal cells, FIG. 10a): clear dose dependent increase in GEMM colony formation
increase in efficiency of GEMM stimulation (MNC; 2×10^4 ABME cells vs 1×10^5 mesenchymal cells): ~10 fold
number of CD34+ cells attached to ABME (CD34+ cells [1]): significantly more number of CD34^+ cells attached
efficiency of ABME created ([2]; 1-25 nano gram.ml^-1, mesenchymal cells contacted 8-24 hours): equally efficient ABME
blood cell colonies formed (number, cellularity) ([2]; MNC exposed to mesenchymal cells contacted with the agent, compared with (A) untreated mesenchymal cells, FIG. 1): greater in number and of higher cellularity than (A)
colony formation along lineages GEMM, BFU-E and GM ([2]; lineage specific colony formation assay, FIG. 3A, vs control without biological agent): uniformly stimulated
potency in creating ABME from mesenchymal cells ([2]; used separately): nearly equipotent
CD34+ cell proliferation (CD34+ cells [3]; 10 ngml^-1, 18 hours, CD34+ number after 48 hours, vs no TGFβ1, FIG. 10b): supported more CD34^+ cell proliferation
Jagged1 amount in ABME (CD34+ cells [3]; compared to mesenchyme cells, FIG. 10c): significantly more amounts of the promoter of self renewal, Jagged1
HIF1α expression (HIF1α): clear nuclear expression of HIF1α

From US20080241870A1, “Composition For Creating an Artificial Bone Marrow Like Environment and Use Thereof” (NATIONAL CENTRE FOR CELL SCINECES, priority 2005, published 2008)
